The values below come from patent US20170037091A1, “STY PEPTIDES FOR INHIBITION OF ANGIOGENESIS” (RESEARCH DEVELOPMENT FOUNDATION, priority 2014, published 2017).

In assay [1] the test system is CRL 1500 breast cancer cell line. Description: XTT cell proliferation assay, CRL 1500 breast cancer cells. In kind it is cell-based, human. As for the experimental part: (§1) A 26 amino acid sequence corresponding to a Ser-Thr-Tyr domain within RTEF-1 (FIG. 1), linked to a 10 amino acid cell importation signal (RMR) was synthesized (GenScript NJ). Human ocular melanoma cells (Mel 270, Mel 202), retinoblastoma cells (Y79; ATTC, MD), primate ocular endothelial retina/choroid ocular endothelial cells (RF/6A; ATCC, MD), human retinal pigment epithelial cells (ARPE19; ATCC, MD), and the CRL 1500 breast cancer cell line (ATCC, MD) were plated into 96 well plates and cultured for 24 h. […]
(§2) Cell proliferation was assessed at 72 h using a colorimetric XTT assay (Roche Diagnostics, Indianpolis, Conn., USA). Cell proliferation was expressed as a percentage and compared with untreated control cell growth (N=3).

The subject of assay [2] is primate ocular endothelial retina/choroid ocular endothelial cells (RF/6A). Description: XTT cell proliferation assay, RF/6A ocular endothelial cells. It is filed as cell-based. The following applies: 30 mg/100 mL, XTT at 72 h. As for the experimental part: (§3) A 26 amino acid sequence corresponding to a Ser-Thr-Tyr domain within RTEF-1 (FIG. 1), linked to a 10 amino acid cell importation signal (RMR) was synthesized (GenScript NJ). Human ocular melanoma cells (Mel 270, Mel 202), retinoblastoma cells (Y79; ATTC, MD), primate ocular endothelial retina/choroid ocular endothelial cells (RF/6A; ATCC, MD), human retinal pigment epithelial cells (ARPE19; ATCC, MD), and the CRL 1500 breast cancer cell line (ATCC, MD) were plated into 96 well plates and cultured for 24 h. Recombinant STY-RMR peptide was added to the cell culture media at various concentrations (10 to 30 mg/100 mL).
as §2
(Tetrazolium assays rely on reduction of a dye to a coloured formazan, in cell work by metabolically active cells.)

Assay [3] has as its system human retinal pigment epithelial cells (ARPE19). Description: XTT cell proliferation assay, ARPE-19 cells. It is filed as cell-based. The settings on record: 30 mg/100 mL, XTT at 72 h. As for the experimental part: as §3, §2
Assay [4] deals with Human ocular melanoma cells (Mel 202). Description: XTT cell proliferation assay, Mel 202 ocular melanoma cells. It is filed as cell-based. The following applies: 30 mg/100 mL, XTT at 72 h, N=3. As to the method:
as §3, §2

The subject of assay [5] is Human ocular melanoma cells (Mel 270). Description: XTT cell proliferation assay, Mel 270 ocular melanoma cells. In kind it is cell-based. The following applies: 30 mg/100 mL, XTT at 72 h. As for the experimental part:
as §3, §2

Assay [6] concerns secreted VEGF, breast cancer cells (CRL 1500). Description: VEGF ELISA of culture media, CRL 1500 breast cancer cells. In kind it is cell-based, human. The settings on record: 0.1 μg/100 μL, three days. As to the method: as §1
(§4) The amount of VEGF within the media was determined by VEGF ELISA (R&D Systems, MN, USA) and compared between STY-RMR treated and controls (N=3).

For assay [7], the system named is secreted VEGF, ocular melanoma cell line 270. Description: VEGF ELISA of culture media, Mel 270 cells. In kind it is cell-based, human. The following applies: 30 mg/100 mL, three days. As to the method: as §3, §4
For orientation: An ELISA detects its analyte on a solid surface through an enzyme-linked reagent.

Assay [8] deals with secreted VEGF, ocular retinal-choroidal derived vascular endothelial cells (RF/6A). Description: VEGF ELISA of culture media, RF/6A cells. It is filed as cell-based, primate. The settings on record: 30 mg/100 mL, three days. As to the method: as §3, §4
The test system of assay [9] is secreted VEGF, ARPE19 cells. Description: VEGF ELISA of culture media, ARPE19 cells. It is filed as cell-based, human. The following applies: 30 mg/100 mL, three days. As for the experimental part: as §3, §4
The subject of assay [10] is secreted VEGF in the media of all tested cell lines. Description: VEGF ELISA of culture media, all tested cell lines (summary statement). The following applies: all tested cell lines exposed to STY-RMR. It is filed as cell-based. As for the experimental part:
as §3, §4

For the substance “STY-RMR: 26 amino acid STY domain of RTEF-1 linked to 10 amino acid RMR cell importation signal; 36 amino acids (SEQ ID NO:2) (SSFYGVSSQYESPENMIITCSTKVCSRMRRMRRMRR)”, the “inhibition of breast cancer cell (CRL 1500) proliferation” value in [1] (0.1 μg/100 μL twice a day for three days) is 9%; in assay [1] (0.2 μg/100 μL twice a day for three days), 27%; in assay [1] (0.5 μg/100 μL twice a day for three days) it was 27%; in [1] (1 μg/100 μL twice a day for three days), 27%; in assay [1] (5 μg/100 μL twice a day for three days) it was 50%; in assay [1] (6 μg/100 μL twice a day for three days) it was 50%. Further, the “inhibition of RF/6A ocular endothelial cell proliferation” value in assay [2] was found to be 42%. Also, in [3], the “inhibition of ARPE-19 retinal pigment epithelial cell proliferation” value stood at 75%. Besides, in assay [4], the “inhibition of Mel 202 ocular melanoma cell proliferation” value is reported as 87%. Further, the “inhibition of Mel270 ocular melanoma cell proliferation below control” value in [5] was 60%. The “decrease of VEGF levels in breast tumor cells (ELISA)” value in assay [6] was 78%. Besides, in [7], the “reduction in secreted VEGF levels, ocular melanoma cell line 270 (ELISA)” value is on record as 81%. Moreover, in assay [8], the “reduction of secreted VEGF, RF/6A ocular vascular endothelial cells (ELISA)” value came to 80%. Moreover, the “reduction of VEGF levels compared to control, ARPE19 cells (ELISA)” value in [9] amounted to 88%. In addition, the “secreted VEGF in the media, result in words” value in assay [10] is recorded as “decreased”.
